Activity calls are given as the source filed them. Unless noted, the rule behind the calls is not given here.
Columns and labels:
Toxoplasma gondii [1] = experiment: Antiparasitic activity against Toxoplasma gondii infected in human foreskin fibroblasts assessed as inhibition of replication measured as decrease in the number of tachyzoites in vacuole at 10 uM after 24 hrs by fluorescence assay; type: functional, organism-based
Toxoplasma gondii [2] = experiment: Antiparasitic activity against Toxoplasma gondii infected in human foreskin fibroblasts assessed as inhibition of invasion compound pretreated at 10 uM for 20 mins before infection after 1 hr by fluorescence assay; type: functional, organism-based
Toxoplasma gondii [3] = experiment: Antiparasitic activity against Toxoplasma gondii infected in human foreskin fibroblasts assessed as tachyzoite growth inhibition after 5 days by colorimetric assay; type: functional, organism-based; conditions: 120 h
Toxoplasma gondii [4] = experiment: Antiparasitic activity against Toxoplasma gondii infected in human foreskin fibroblasts assessed as inhibition of attachment compound pretreated at 10 uM for 20 mins before infection after 1 hr by fluorescence assay; type: functional, organism-based
[5] = Cytotoxicity against human foreskin fibroblasts after 5 days by colorimetric assay; type: cell-based; conditions: human foreskin fibroblasts (HFF cells), read-out: TD50
[6] = Therapeutic index, ratio of TD50 for human foreskin fibroblasts to IC50 for Toxoplasma gondii infected in human foreskin fibroblasts; conditions: read-out: TI
Toxoplasma gondii [7] = experiment: Antiparasitic activity against Toxoplasma gondii infected in human foreskin fibroblasts assessed as inhibition of replication measured as recovery at 10 uM for 24 hrs followed by washout measured after 96 hrs by fluorescence assay; type: functional, organism-based
Toxoplasma gondii [8] = experiment: Antiparasitic activity against Toxoplasma gondii infected in human foreskin fibroblasts assessed as inhibition of tachyzoite replication compound pretreated at 10 uM for 24 hrs before infection by fluorescence assay; type: functional, organism-based

Structure (SMILES): O=C1CSC(NN=C2CCCCC2)=N1
- inhibition (Toxoplasma gondii [1]): Active
- inhibition (Toxoplasma gondii [2]): Active
- IC50 (Toxoplasma gondii [3]): 28 µM
- IC90 (Toxoplasma gondii [3]): 278 µM
- inhibition (Toxoplasma gondii [4]): Active
- CC50 at 120 h [5]: ≥ 320 µM
- selectivity ratio [6]: 20

Structure (SMILES): O=C1CS/C(=N/N=C\c2cccc3ccccc23)N1Cc1ccccc1
- inhibition (Toxoplasma gondii [2]): Active
- IC50 (Toxoplasma gondii [3]): 38 µM
- IC90 (Toxoplasma gondii [3]): 79 µM
- inhibition (Toxoplasma gondii [4]): Active
- CC50 at 120 h [5]: ≥ 320 µM
- selectivity ratio [6]: 15

Structure (SMILES): C/C(CC(C)C)=N/N=C1\NC(=O)CS1
- inhibition (Toxoplasma gondii [1]): Active
- inhibition (Toxoplasma gondii [2]): Active
- IC50 (Toxoplasma gondii [3]): 23 µM
- IC90 (Toxoplasma gondii [3]): 126 µM
- inhibition (Toxoplasma gondii [4]): Active
- CC50 at 120 h [5]: 290 µM
- selectivity ratio [6]: 13

Structure (SMILES): CC1CCC/C1=N/N=C1\NC(=O)CS1 (stereo unspecified)
- inhibition (Toxoplasma gondii [1]): Active
- inhibition (Toxoplasma gondii [2]): Active
- IC50 (Toxoplasma gondii [3]): 0.9 µM
- IC90 (Toxoplasma gondii [3]): 2 µM
- inhibition (Toxoplasma gondii [4]): Active
- CC50 at 120 h [5]: 35 µM
- selectivity ratio [6]: 39

Structure (SMILES): CCCCCC/C(C)=N\N=C1/NC(=O)CS1
- inhibition (Toxoplasma gondii [1]): Active
- inhibition (Toxoplasma gondii [2]): Active
- IC50 (Toxoplasma gondii [3]): 31 µM
- IC90 (Toxoplasma gondii [3]): 188 µM
- inhibition (Toxoplasma gondii [4]): Active
- CC50 at 120 h [5]: ≥ 320 µM
- selectivity ratio [6]: 18

Structure (SMILES): CCCC/C(CC)=N\N=C1\SCC(=O)N1Cc1ccccc1
- inhibition (Toxoplasma gondii [1]): Active
- inhibition (Toxoplasma gondii [2]): Active
- IC50 (Toxoplasma gondii [3]): 15 µM
- IC90 (Toxoplasma gondii [3]): 121 µM
- inhibition (Toxoplasma gondii [4]): Active
- CC50 at 120 h [5]: ≥ 320 µM
- selectivity ratio [6]: 37

Structure (SMILES): CC1CC/C(=N/N=C2\NC(=O)CS2)C1 (stereo unspecified)
- inhibition (Toxoplasma gondii [1]): Active
- inhibition (Toxoplasma gondii [2]): Active
- IC50 (Toxoplasma gondii [3]): 24 µM
- IC90 (Toxoplasma gondii [3]): 154 µM
- inhibition (Toxoplasma gondii [4]): Active
- CC50 at 120 h [5]: ≥ 320 µM
- selectivity ratio [6]: 23

Structure (SMILES): O=C1CS/C(=N/N=C\c2cccc3ccccc23)N1
- inhibition (Toxoplasma gondii [1]): Active
- inhibition (Toxoplasma gondii [2]): Active
- IC50 (Toxoplasma gondii [3]): 3.9 µM
- IC90 (Toxoplasma gondii [3]): 31 µM
- inhibition (Toxoplasma gondii [4]): Active
- CC50 at 120 h [5]: ≥ 320 µM
- selectivity ratio [6]: 144
- inhibition (Toxoplasma gondii [7]): inactive

Structure (SMILES): O=C1CS/C(=N/N=C\c2ccncc2)N1
- inhibition (Toxoplasma gondii [1]): Active
- inhibition (Toxoplasma gondii [2]): Active
- IC50 (Toxoplasma gondii [3]): 20 µM
- IC90 (Toxoplasma gondii [3]): 129 µM
- inhibition (Toxoplasma gondii [4]): Active
- CC50 at 120 h [5]: ≥ 320 µM
- selectivity ratio [6]: 28

Structure (SMILES): C/C(=N/N=C1/SCC(=O)N1Cc1ccccc1)c1cccs1
- inhibition (Toxoplasma gondii [1]): Active
- inhibition (Toxoplasma gondii [2]): Active
- IC50 (Toxoplasma gondii [3]): 37 µM
- IC90 (Toxoplasma gondii [3]): 84 µM
- inhibition (Toxoplasma gondii [4]): Active
- CC50 at 120 h [5]: ≥ 320 µM
- selectivity ratio [6]: 15

Structure (SMILES): CC(C)=N/N=C1\NC(=O)CS1
- inhibition (Toxoplasma gondii [1]): Active
- inhibition (Toxoplasma gondii [8]): inactive
- IC50 (Toxoplasma gondii [3]): 210 µM
- IC90 (Toxoplasma gondii [3]): 852 µM
- CC50 at 120 h [5]: ≥ 320 µM
- selectivity ratio [6]: 3

Structure (SMILES): C/C(=N/N=C1/SCC(=O)N1Cc1ccccc1)c1ccncc1
- inhibition (Toxoplasma gondii [1]): Active
- inhibition (Toxoplasma gondii [2]): Active
- IC50 (Toxoplasma gondii [3]): 36 µM
- IC90 (Toxoplasma gondii [3]): 103 µM
- inhibition (Toxoplasma gondii [4]): Active
- CC50 at 120 h [5]: 183 µM
- selectivity ratio [6]: 5

Structure (SMILES): CC/C(C)=N\N=C1\SCC(=O)N1Cc1ccccc1
- inhibition (Toxoplasma gondii [1]): Active
- IC50 (Toxoplasma gondii [3]): 99 µM
- IC90 (Toxoplasma gondii [3]): 392 µM
- CC50 at 120 h [5]: ≥ 320 µM
- selectivity ratio [6]: 6

Structure (SMILES): C/C(=N/N=C1/SCC(=O)N1Cc1ccccc1)c1ccco1
- inhibition (Toxoplasma gondii [1]): Active
- IC50 (Toxoplasma gondii [3]): 76 µM
- IC90 (Toxoplasma gondii [3]): 212 µM
- CC50 at 120 h [5]: ≥ 320 µM
- selectivity ratio [6]: 7

Structure (SMILES): O=C1CSC(NN=C2CCCC2)=N1
- inhibition (Toxoplasma gondii [1]): Active
- inhibition (Toxoplasma gondii [2]): Active
- IC50 (Toxoplasma gondii [3]): 27 µM
- IC90 (Toxoplasma gondii [3]): 175 µM
- inhibition (Toxoplasma gondii [4]): Active
- CC50 at 120 h [5]: ≥ 320 µM
- selectivity ratio [6]: 21

Structure (SMILES): O=C1CSC(NN=C2CCCCCCC2)=N1
- inhibition (Toxoplasma gondii [1]): Active
- IC50 (Toxoplasma gondii [3]): 79 µM
- IC90 (Toxoplasma gondii [3]): 290 µM
- CC50 at 120 h [5]: 309 µM
- selectivity ratio [6]: 4

Structure (SMILES): CC1CCC(=N/N=C2\NC(=O)CS2)CC1 (stereo unspecified)
- inhibition (Toxoplasma gondii [1]): Active
- IC50 (Toxoplasma gondii [3]): 226 µM
- IC90 (Toxoplasma gondii [3]): 777 µM
- CC50 at 120 h [5]: ≥ 320 µM
- selectivity ratio [6]: 2

Structure (SMILES): CCCCC/C(C)=N\N=C1/NC(=O)CS1
- inhibition (Toxoplasma gondii [1]): Active
- IC50 (Toxoplasma gondii [3]): 110 µM
- IC90 (Toxoplasma gondii [3]): 686 µM
- CC50 at 120 h [5]: 320 µM
- selectivity ratio [6]: 3

Structure (SMILES): C/C(=N/N=C1\NC(=O)CS1)c1cc2ccccc2oc1=O
- inhibition (Toxoplasma gondii [2]): Active
- IC50 (Toxoplasma gondii [3]): 8 µM
- IC90 (Toxoplasma gondii [3]): 49 µM
- inhibition (Toxoplasma gondii [4]): Active
- CC50 at 120 h [5]: ≥ 320 µM
- selectivity ratio [6]: 70

Source: ChEMBL document CHEMBL3352341, “Design, synthesis and biological characterization of thiazolidin-4-one derivatives as promising inhibitors of Toxoplasma gondii” (Eur J Med Chem, 2014)
